Literature values in patent publication US20050119124A1, “Phosphorus and potassium fertilizer for all forms of perennial trees, vines and annual crops” (priority 1999, published 2005).

Conditions: 18C

**Q.** With `OP(O)O` [Phosphorous acid, phosphorous acid] as the compound, how does the “pK, first acid group” value read?
**A.** Its value is 2.00.

**Q.** What about the “pK, second acid group” value of the same compound?
**A.** The value was 6.59.
